Reference: patent US7618796B2, “Peptide-forming enzyme gene, peptide-forming enzyme, and peptide producing method” (Ajinomoto Co., Inc., priority 2001, dated 2009)
Like-named read-outs stand apart in the source and are kept apart here. Each block holds one molecule with its values, some of them ahead of it. Residues, ends and D or L forms follow the SMILES beside them.

Columns and labels:
[1] = tested on: Pseudomonas putida strain FERM BP-8101; conditions: substrate solution with 20 mM EDTA, 200 mM L-alanine ethyl ester hydrochloride, 400 mM L-glutamine, pH 9.0, 1 hour, 30° C.; 4.9 mM with no EDTA
Source text: However, the present invention is not limited to these examples.

[2] = target: proline iminopeptidase of Bacillus coagulans strain EK01 (Heyndrickxia coagulans, UniProt P46541); experiment: Effect of inhibitors on L-alanyl-L-glutamine synthesis; format: biochemical; conditions: 1 mM inhibitor, 30 minutes, 30° C.
[3] = tested on: proline iminopeptidase of Pseudomonas putida strain FERM BP-8123; experiment: as above; format: biochemical; conditions: 1 mM inhibitor, 30 minutes, 30° C.
[4] = tested on: proline iminopeptidase of Pseudomonas putida strain ATCC 12633; experiment: as above; format: biochemical; conditions: 1 mM inhibitor, 30 minutes, 30° C.
Procedure: The effects of inhibitors on acquired proline iminopeptidase were investigated. The enzyme reaction was carried out for 30 minutes at 30° C. with a reaction solution consisting of 0.1 M borate buffer (pH 9.0), 10 mM EDTA, 100 mM L-alanine methyl ester hydrochloride, 150 mM L-glutamine and 1 mM inhibitor, followed by measurement of L-alanyl-L-glutamine synthesis. […] The activity was not affected by any of the inhibitors investigated for Corynebacterium glutamicum strain ATCC 13286.

[5] = tested on: Pseudomonas putida strain FERM BP-8101; experiment: Dipeptide production from test L-alanine esters / L-amino acids by cell suspension; format: cell-based; conditions: 20 mM EDTA, pH 9.0, 1 hour, 30° C.; for L-alanyl-L-glutamine produced: test L-alanine ester hydrochloride 200 mM with L-glutamine 400 mM; for L-alanyl dipeptide produced: L-alanine methyl ester hydrochloride 200 mM with test L-amino acid 400 mM
Procedure: Note that in the examples, quantitative determination of L-alanine, L-alanyl-L-glutamine or L-alanyl-L-asparagine was carried out by a method using high performance liquid chromatography (column: Inertsil ODS-2 (GL Science), eluate: aqueous phosphate solution (pH 2.2, 5.0 mM sodium 1-octane sulfonate/methanol=100/15), flow rate: 1.0 mL/min, detection: 210 nm).

[6] = tested on: His-Tag purified peptide-forming enzyme of Corynebacterium glutamicum strain ATCC 13286; experiment: Study of substrate specificity using His-Tag purified enzyme; format: biochemical; conditions: 25° C.; for quantity of L-alanyl dipeptide produced from L-alanine methyl ester and test amino acid: 100 mM L-alanine methyl ester hydrochloride, 150 mM test amino acid; for quantity of L-alanyl dipeptide produced from L-alanine methyl ester and test amino acid / quantity of dipeptide produced from test amino acid methyl ester and L-glutamine: enzyme 0.05 U/ml, pH 9.0, 3 hours; for quantity of dipeptide produced from test amino acid methyl ester and L-glutamine / production of peptide of the corresponding amino acid and L-glutamine (not quantified): 100 mM test amino acid methyl ester, 150 mM L-glutamine; for production of peptide of the corresponding amino acid and L-glutamine (not quantified): 3 hours, no standard preparation
Source text: The synthesis of peptides other than the L-alanyl-L-glutamine by the acquired peptide-forming enzyme was studied using His-Tag purified enzyme. […]

[7] = tested on: peptide-forming enzyme purified from Corynebacterium glutamicum strain ATCC 13286; experiment: Dipeptide production by enzyme purified from Corynebacterium glutamicum; format: biochemical; conditions: 100 mM L-alanine methyl ester hydrochloride with 200 mM test L-amino acid, 2 units enzyme, 10 mM EDTA, pH 9.0, 4 hours, 30° C.
Procedure: This purified enzyme was then added to borate buffer (pH 9.0) containing EDTA, L-alanine methyl ester hydrochloride and L-glutamine (or L-asparagine), mixed to the total volume of 1 mL (for the final concentrations, the amount of enzyme added was 2 units as alanine amide decomposition activity, EDTA was at 10 mM, L-alanine methyl ester hydrochloride was at 100 mM and L-glutamine (or L-asparagine) was at 200 mM borate buffer at 100 mM), and allowed to react for 4 hours at 30° C.

[8] = Enzyme titer: L-alanine amide decomposition activity; format: biochemical; conditions: Tris-HCl pH 9.0, 60 minutes, 30° C.
Procedure: The specific activity of the purified enzyme was 9.841 U/mg, and the specific activity of the purified peptide-forming enzyme was increased about 246-fold as a result of going through these purification steps. In addition, as a result of applying the molecular weight of the purified enzyme standard to SDS polyacrylamide electrophoresis, a uniform band was detected at the position calculated to represent a molecular weight of 42,000 to 46,000. Measurement of enzyme titer was carried out as described below. 200 μM of Tris-HCl buffer (pH 9.0), 50 μM of L-alanine amide and a suitable amount of enzyme liquid were added and mixed to a final volume 1 mL, and after allowing to react for 60 minutes at 30° C., 4 mL of aqueous phosphoric acid (pH 2.1) was added to stop the reaction. The alanine produced was quantified by high-performance liquid chromatography, and the amount of enzyme that produces 1 μM of L-alanine in 1 minute was defined as 1 unit.

Sequence of proline iminopeptidase of Bacillus coagulans strain EK01 (P46541 whole entry): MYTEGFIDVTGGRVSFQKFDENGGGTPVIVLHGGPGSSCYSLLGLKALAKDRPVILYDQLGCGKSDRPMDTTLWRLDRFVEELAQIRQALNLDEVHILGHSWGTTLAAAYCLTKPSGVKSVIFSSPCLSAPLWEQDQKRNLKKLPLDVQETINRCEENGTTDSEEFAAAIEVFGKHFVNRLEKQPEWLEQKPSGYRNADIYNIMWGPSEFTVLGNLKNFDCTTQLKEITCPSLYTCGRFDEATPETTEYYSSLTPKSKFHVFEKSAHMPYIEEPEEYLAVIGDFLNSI

Molecule: O=C(O)CN(CCN(CC(=O)O)CC(=O)O)CC(=O)O [EDTA, ethylenediaminetetraacetic acid]
L-alanyl-L-glutamine produced [1]: 10.1 mM

Molecule: NC(=O)CI [IAA, iodoacetoamide]
effect on enzyme activity [2]: decreased to certain extents | effect on enzyme activity [3]: decreased to certain extents | effect on enzyme activity [4]: decreased to certain extents

Molecule: CCOC(=O)[C@H](C)N.Cl [L-alanine ethyl ester hydrochloride]
L-alanyl-L-glutamine produced [5]: 11.4 mM

Molecule: COC(=O)[C@H](C)N.Cl [L-alanine methyl ester hydrochloride]
L-alanyl-L-glutamine produced [5]: 14.9 mM

Molecule: C[C@H](N)C(=O)OC(C)(C)C.Cl [L-alanine-tert-butyl ester hydrochloride]
L-alanyl-L-glutamine produced [5]: 0.5 mM

Molecule: C[C@H](N)C(=O)O [L-alanine]
quantity of L-alanyl dipeptide produced from L-alanine methyl ester and test amino acid [6]: 10.63 mM

Molecule: COC(=O)[C@@H](N)CCCNC(=N)N [L-arginine methyl ester]
quantity of dipeptide produced from test amino acid methyl ester and L-glutamine [6]: 6.52 mM

Molecule: N=C(N)NCCC[C@H](N)C(=O)O [L-arginine]
quantity of L-alanyl dipeptide produced from L-alanine methyl ester and test amino acid [6]: 24.87 mM

Molecule: COC(=O)[C@@H](N)CC(N)=O [L-asparagine methyl ester]
production of peptide of the corresponding amino acid and L-glutamine (not quantified) [6]: confirmed to be produced

Molecule: NC(=O)C[C@H](N)C(=O)O [L-asparagine]
quantity of L-alanyl dipeptide produced from L-alanine methyl ester and test amino acid [6]: 22.34 mM | amount of L-alanyl dipeptide produced [7]: 49.8 mM | L-alanyl dipeptide produced [5]: 4.8 mM

Molecule: COC(=O)C[C@H](N)C(=O)OC [L-aspartic acid-α,β-dimethyl ester]
production of peptide of the corresponding amino acid and L-glutamine (not quantified) [6]: confirmed to be produced

Molecule: COC(=O)[C@@H](N)CC(=O)O [L-aspartic acid-α-methyl ester]
quantity of dipeptide produced from test amino acid methyl ester and L-glutamine [6]: 8.22 mM

Molecule: COC(=O)C[C@H](N)C(=O)O [L-aspartic acid-β-methyl ester]
production of peptide of the corresponding amino acid and L-glutamine (not quantified) [6]: confirmed to be produced

Molecule: N[C@@H](CCC(=O)O)C(=O)O [L-glutamate]
quantity of L-alanyl dipeptide produced from L-alanine methyl ester and test amino acid [6]: 1.11 mM

Molecule: COC(=O)CC[C@H](N)C(=O)O [L-glutamic acid-γ-methyl ester]
production of peptide of the corresponding amino acid and L-glutamine (not quantified) [6]: confirmed to be produced

Molecule: COC(=O)[C@@H](N)CCC(N)=O [L-glutamine methyl ester]
quantity of dipeptide produced from test amino acid methyl ester and L-glutamine [6]: 0.23 mM

Molecule: NC(=O)CC[C@H](N)C(=O)O [L-glutamine]
amount of L-alanyl dipeptide produced [7]: 50.2 mM | L-alanyl dipeptide produced [5]: 12.7 mM

Molecule: N[C@@H](Cc1c[nH]cn1)C(=O)O [L-histidine]
quantity of L-alanyl dipeptide produced from L-alanine methyl ester and test amino acid [6]: 23.16 mM

Molecule: CC[C@H](C)[C@H](N)C(=O)N[C@@H](CCC(N)=O)C(=O)O [L-isoleucyl-L-glutamine] (H-Ile-Gln-OH)
quantity of dipeptide produced from test amino acid methyl ester and L-glutamine [6]: 0.59 mM

Molecule: COC(=O)[C@@H](N)CC(C)C [L-leucine methyl ester]
production of peptide of the corresponding amino acid and L-glutamine (not quantified) [6]: confirmed to be produced

Molecule: CC(C)C[C@H](N)C(=O)O [L-leucine]
quantity of L-alanyl dipeptide produced from L-alanine methyl ester and test amino acid [6]: 13.73 mM

Molecule: COC(=O)[C@@H](N)CCCCN [L-lysine methyl ester]
production of peptide of the corresponding amino acid and L-glutamine (not quantified) [6]: confirmed to be produced

Molecule: NCCCC[C@H](N)C(=O)O [L-lysine]
quantity of L-alanyl dipeptide produced from L-alanine methyl ester and test amino acid [6]: 7.91 mM

Molecule: N[C@@H](Cc1c[nH]c2ccccc12)C(=O)O [L-tryptophan]
quantity of L-alanyl dipeptide produced from L-alanine methyl ester and test amino acid [6]: 15.31 mM

Molecule: CCN1C(=O)C=CC1=O [NEM, N-ethylmaleimide]
effect on enzyme activity [2]: nearly completely inhibited | effect on enzyme activity [3]: nearly completely inhibited | effect on enzyme activity [4]: nearly completely inhibited

Molecule: O=S(=O)(F)Cc1ccccc1 [PMSF, phenyl methyl sulfonyl fluoride]
effect on enzyme activity [2]: did not have an effect | effect on enzyme activity [3]: did not have an effect | effect on enzyme activity [4]: did not have an effect

Molecule: peptide-forming enzyme purified from Corynebacterium glutamicum strain ATCC 13286: native enzyme purified to uniformity; amino acid sequence SEQ ID NO: 5
specific activity (L-alanine amide decomposition) [8]: 9.841 U/mg

Second part, the molecule after the results:

quantity of dipeptide produced from test amino acid methyl ester and L-glutamine [6]: 4.31 mM
Molecule: COC(=O)[C@@H](N)CCSC [L-methionine methyl ester]

quantity of L-alanyl dipeptide produced from L-alanine methyl ester and test amino acid [6]: 48.80 mM
Molecule: CSCC[C@H](N)C(=O)O [L-methionine]

quantity of L-alanyl dipeptide produced from L-alanine methyl ester and test amino acid [6]: 16.13 mM
Molecule: N[C@@H](Cc1ccccc1)C(=O)O [L-phenylalanine]

quantity of L-alanyl dipeptide produced from L-alanine methyl ester and test amino acid [6]: 1.02 mM
Molecule: O=C(O)[C@@H]1CCCN1 [L-proline]

quantity of dipeptide produced from test amino acid methyl ester and L-glutamine [6]: 40.44 mM
Molecule: COC(=O)[C@@H](N)CO [L-serine methyl ester]

quantity of L-alanyl dipeptide produced from L-alanine methyl ester and test amino acid [6]: 26.14 mM
Molecule: N[C@@H](CO)C(=O)O [L-serine]

quantity of dipeptide produced from test amino acid methyl ester and L-glutamine [6]: 3.85 mM
Molecule: COC(=O)[C@@H](N)[C@@H](C)O [L-threonine methyl ester]

quantity of L-alanyl dipeptide produced from L-alanine methyl ester and test amino acid [6]: 24.23 mM
Molecule: C[C@@H](O)[C@H](N)C(=O)O [L-threonine]

quantity of dipeptide produced from test amino acid methyl ester and L-glutamine [6]: 1.24 mM
Molecule: COC(=O)[C@@H](N)Cc1ccc(O)cc1 [L-tyrosine methyl ester]

quantity of L-alanyl dipeptide produced from L-alanine methyl ester and test amino acid [6]: 0.96 mM
Molecule: N[C@@H](Cc1ccc(O)cc1)C(=O)O [L-tyrosine]

quantity of dipeptide produced from test amino acid methyl ester and L-glutamine [6]: 5.94 mM
Molecule: COC(=O)[C@@H](N)C(C)C [L-valine methyl ester]

quantity of dipeptide produced from test amino acid methyl ester and L-glutamine [6]: 52.19 mM
Molecule: COC(=O)CN [glycine methyl ester]

quantity of L-alanyl dipeptide produced from L-alanine methyl ester and test amino acid [6]: 5.66 mM
Molecule: NCC(=O)O [glycine]
